Laboratory results reported in PubChem BioAssay (NCI).
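Five concentrations, 48 hours, 96-well plates. Abbreviation: GI50, concentration required for 50% inhibition of growth. The concentration for full growth arrest is given as TGI.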

Legend:
Experiment in all cases: growth of human tumour cells (NCI), 48 h
[1] = test system: CCRF-CEM leukemia
[2] = test system: COLO 205 colon
[3] = test system: DU-145 prostate
[4] = test system: EKVX NSCLC
[5] = test system: K-562 leukemia
[6] = test system: M14 melanoma
[7] = test system: SF-539 CNS
[8] = test system: TK-10 renal
[9] = test system: UACC-257 melanoma
[10] = test system: SR leukemia

| SMILES | GI50 [1] [µM] | TGI [1] [µM] | GI50 [2] [µM] | TGI [2] [µM] | GI50 [3] [µM] | TGI [3] [µM] | GI50 [4] [µM] | TGI [4] [µM] | GI50 [5] [µM] | TGI [5] [µM] | GI50 [6] [µM] | TGI [6] [µM] | GI50 [7] [µM] | TGI [7] [µM] | GI50 [8] [µM] | TGI [8] [µM] | GI50 [9] [µM] | TGI [9] [µM] | TGI [10] [µM] |
| --- | --- | --- | --- | --- | --- | --- | --- | --- | --- | --- | --- | --- | --- | --- | --- | --- | --- | --- | --- |
| Nc1ccccc1C#C/C=C\C#Cc1c(F)c(F)c(F)c(F)c1F | 0.385 | 14.2 | 18.9 | 37.4 | 24.7 | 79.9 | 29.7 | 99.1 | 16.3 | 53.7 | 15 | 29.4 | 20.9 | 47.1 | 20.1 | 40.7 | 17.9 | 38.6 |  |
| NCCCCCCNCc1cccc2ccccc12 |  |  |  | > 100 |  |  |  | > 100 |  | 51.1 |  | 34.3 |  | > 100 |  | > 100 |  | > 100 | > 100 |
| O=C(N/N=C/c1cc(Cl)cc(Cl)c1[O-])c1ccccc1.O=C(N/N=C/c1cc(Cl)cc(Cl)c1[O-])c1ccccc1.[Co+2] | 3.43 | 19.6 | 42.1 | > 100 |  |  | 10.3 | > 100 | 15.6 | 76.7 | 17.8 | 78.3 | 20.5 | 93 | 41 | > 100 | 19.6 | 76.3 |  |
| Cc1ccc(NCCN(C)C)c2c(=O)c3ccccc3sc12 | 2.12 | 6.18 | 1.29 | 2.65 | 2.02 | 4.63 | 2.96 | 9.93 | 1.6 | 3.56 | 1.59 | 3.05 | 1.59 | 2.97 | 2.34 | 5.45 | 1.88 | 3.83 |  |
| Cc1c(C(N)=O)sc2c1c(=O)n(Cc1ccccc1)c1nnc(-c3ccc(Br)cc3)n21 | 0.805 | 22.8 | 3.12 | 15 | 2.32 | 14.9 | 3.11 | 21.6 | 3.09 | 20.4 | 1.51 | 3.67 | 2.87 | 12.5 | 3.33 | 16.3 | 3.14 | 11.8 |  |
| CCCCCCCCCCCCCC(=O)CSCCNC(=O)CCNC(=O)[C@@H](O)C(C)(C)COP(=O)(O)OP(=O)(O)OCC1OC(n2cnc3c(N)ncnc32)C(O)C1OP(=O)(O)O (stereo partly drawn) |  | 99.2 |  | 29.4 |  |  |  | 41.3 |  |  |  | 32 |  | 29.8 |  | > 100 |  | 36.1 |  |
| CC12CCC3c4cc(Br)c(O)c(Br)c4CCC3C1CCC2O (stereo not drawn) |  | 75.8 |  | 70.1 |  | > 100 |  | 45.4 |  | 64.6 |  | > 100 |  | 36.3 |  | 43.1 |  | 35.8 |  |
| C[C@@H]1COCCN1c1cc(C2([S@@](C)(=N)=O)CC2)nc(-c2ccnc3[nH]ccc23)n1 | 2.55 | > 42.5 | 7.69 | > 83.1 | 4.71 | > 100 | 5.78 | 67.4 | 8.91 | > 100 | 3.52 | 26.4 | 2.32 | 10.6 | 6.71 | > 71.9 | 14.6 | > 100 |  |
| CCOC(=O)/C(=C/c1ccc(N(CCC#N)CCC#N)cc1C)NC(=O)/C=C/c1ccccc1 |  | > 100 |  | > 100 |  |  |  | > 100 |  | > 100 |  | > 100 |  | > 100 |  | > 100 |  | > 100 |  |
| CCOc1ccc(O)cc1[P+](c1ccccc1)(c1ccccc1)c1ccccc1 |  | 11.2 |  | 10 |  |  |  | 24.2 |  | 9.48 |  | 16.7 |  | 17.8 |  | 12.9 |  | 5.9 |  |
| COc1ccc(C(CC(=O)c2ccccc2)C(C(=O)c2ccccc2)C(c2ccc(OC)cc2)C2C(=O)NC(=S)NC2=O)cc1 (stereo not drawn) | 11.8 | > 100 | 8.86 | > 100 | 10.5 | 32 | 2.44 | 57.2 | 24.8 | > 100 | 36.9 | > 100 | 10.1 | 36.1 | 18.7 | > 100 | 13.8 | 52.7 |  |
| Cc1cc(=O)[nH]c(CNC(=O)c2cccc(C(=O)NCc3cc(=O)[nH]c(C)n3)c2)n1 |  | > 100 |  | > 100 |  |  |  | > 100 |  | > 100 |  | > 100 |  | > 100 |  | > 100 |  | > 100 |  |
| O=C(CC(=O)c1cccc(Cl)c1)c1cccc(Cl)c1 | 0.874 | > 100 | 3.97 | > 100 | 2.77 | > 100 | 2.16 | > 100 | 1.12 | > 100 | 2.35 | > 100 | 2.91 | > 100 | 4.12 | > 100 | 5.99 | > 100 |  |
| COC(=O)/C=c1\s/c(=C\C(=O)OC)c2ccccc12 |  | > 100 |  | > 100 |  |  |  | > 100 |  | > 100 |  | > 100 |  | > 100 |  | > 100 |  | > 100 |  |
| CN(/N=C/c1cccc2cccnc12)c1c([N+](=O)[O-])cc([N+](=O)[O-])cc1[N+](=O)[O-] |  |  |  | > 100 |  |  |  | > 100 |  | > 100 |  | > 100 |  | > 100 |  | > 100 |  | > 100 |  |
| c1ccc(P(=C2c3ccccc3-c3ccccc32)(c2ccccc2)c2ccccc2)cc1 |  | 8.34 |  | 15 |  |  |  | 61.3 |  | 6 |  | 32.6 |  | 36.7 |  | 52.2 |  | 27.3 |  |
| Cc1nc2sccn2c1C(=O)NC(=O)Nc1ccc(Cl)cc1 |  | > 100 |  | > 100 |  |  |  | > 100 |  | > 100 |  | > 100 |  | > 100 |  | > 100 |  | > 100 |  |
| C=CCOC(=O)C1CCC(=O)N1C(=O)C(Cl)Cl (stereo not drawn) |  | > 100 |  | > 100 |  |  |  | > 100 |  | > 100 |  | > 100 |  |  |  | > 100 |  | > 100 |  |
| Cc1cn(-c2ccc(S(C)(=O)=O)cc2)c(-c2ccc(Cl)cc2)n1 | > 100 | > 100 | > 100 | > 100 | > 100 | > 100 | > 100 | > 100 | > 100 | > 100 | > 100 | > 100 | > 100 | > 100 | > 100 | > 100 | > 100 | > 100 |  |
| CC(=O)c1cc(C(=O)c2ccc3c(c2)Sc2ccccc2N3)c2c(C)cccn12 | 0.332 | > 100 | 0.187 | 0.426 | 0.38 | > 34.8 | 0.476 | > 100 | 0.112 | > 100 | 0.198 | 5.5 | 0.234 | 1.13 | 4.73 | > 100 | 2.39 | > 100 |  |
| CNS(=O)(=O)OCC1OC(n2cnc3c(N)ncnc32)C(O)C1O (stereo not drawn) | > 100 | > 100 | > 100 | > 100 | > 100 | > 100 | > 100 | > 100 |  |  | > 100 | > 100 | > 100 | > 100 | > 100 | > 100 | > 100 | > 100 |  |
| O=C(C/C(CCC(=O)N(Cc1ccccc1)Cc1ccccc1)=N/Nc1ccc([N+](=O)[O-])cc1[N+](=O)[O-])c1ccccc1 |  | > 100 |  | > 100 |  |  |  | > 100 |  | > 100 |  | > 100 |  | > 100 |  | > 100 |  | > 100 |  |
| COc1ccc(N(/C=C/C(=O)C(F)(F)F)CC(=O)c2ccc(Cl)cc2)cc1 | 12.2 | 38.1 | 18.6 | 40.7 | 19.8 | 40.4 | 25.3 | 63.3 | 13.6 | 43.1 |  |  | 18.2 | 37 | 17.7 | 40.8 | 18.4 | 37.7 |  |
| CC[N+](C)(CC)CC(C)(C)C(=O)/C=C/c1ccc(/C=C/C(=O)C(C)(C)C[N+](C)(CC)CC)cc1 |  | > 100 |  | > 100 |  |  |  | > 100 |  | > 100 |  | > 100 |  | > 100 |  | > 100 |  | > 100 |  |
| N#Cc1ccc2cc3c(cc2c1)OCO3 |  | > 100 |  | > 100 |  |  |  |  |  | > 100 |  | > 100 |  | > 100 |  |  |  |  |  |
| COc1cc(-n2ccnc2)cc(OC)c1OC | 47.6 | > 100 | > 100 | > 100 | > 100 | > 100 | 84.4 | > 100 | 68.1 | > 100 |  |  | > 100 | > 100 | 42.5 | > 100 | > 100 | > 100 |  |
| CC1NC(=O)C2=C1C(N)=NC(=O)C2 (stereo not drawn) |  |  |  | > 100 |  |  |  | > 100 |  | > 100 |  | > 100 |  | > 100 |  | > 100 |  | > 100 | > 100 |
